SMILES strings stand for the structures. Where two headings read alike, the source gives them in different places.

As usually defined, the AUC(0-t) is the area under the concentration-time curve up to a stated or last time point. In general, Cmax refers to the maximum level reached in the sampled fluid or tissue. By Tmax is commonly meant the time at which the peak concentration occurs.

Data set [1] is described as follows: Stability of the analytes in rat plasma samples under storage conditions. The format is physicochemical. Conditions: n = 6. The protocol: The bioanalytical method validation was evaluated for specificity, linearity, sensitivity, precision and accuracy, recovery, matrix effect, and stability to ensure compliance with the U.S. Food and Drug Administration (FDA) guidance on precise quantitative analysis ([Center for Drug Evaluation and Research of the U.S., 2018]). The assessment of specificity was conducted by comparing the chromatograms obtained from blank plasma, blank plasma spiked with the target components, and samples gathered following the oral administration of OS extract. Calibration curves were constructed by plotting the ratio for the peak area of the analyte to IS versus the concentration, with 1/x^2 serving as the weighting factor. The lower limit of quantification (LLOQ) was defined as the concentration at which a signal to noise ratio of […] 10 was achievable. The evaluation of precision and accuracy involved the analysis of six QC samples, both within a single day and over 3 consecutive days. Accuracy was expressed as the relative error (RE), whereas precision was gauged via relative standard deviation (RSD). Extraction recovery was ascertained by juxtaposing the responses of analytes in extracted samples against those in samples that were spiked post-extraction. The matrix effect was scrutinized by determining the ratio of the responses of the analytes in post-extraction spiked samples to those in the mixed standard solution. The stability of the analytes in plasma samples was explored under diverse conditions: encompassing a 12-h period in an autosampler, a 4-h interval at room temperature, three cycles of freezing–thawing, and a 7-day duration at −80 °C.
The retention times of the analyte peaks were consistent with those in the spiked samples. […] The LLOQs for chrysin, chrysin-7-O-β-D-glucuronide, hispidulin, wogonoside, quercetin, quercetin-7-O-β-D-glucoside, baicalin, baicalein, acacetin, oroxin A, oroxin B, oroxylin A, oroxylin A-7-O-β-D-glucuronide, apigenin, and scutellarein were 1.0, 2.0, 1.0, 0.3, 1.0, 0.1, 9.0, 6.0, 0.3, 6.0, 4.0, 1.0, 2.0, 0.5, and 0.3 ng/mL, respectively. In Supplementary Table S2, the RE for accuracy is between −13.77% and 12.55%, and the RSD for precision is below 14.55% (both intra- and inter-day). […] The matrix effect varied from 60.15% to 115.53%, with RSD values below 10.54%. In Supplementary Table S4, the RSD values for stability of the analytes are found to be lower than 13.98%, meaning that these components were stable under the following conditions: encompassing a 12-h period in an autosampler, a 4-h interval at room temperature, three cycles of freezing and thawing, and a 7-day duration at −80 °C.

Data set [2] in a line: Pharmacokinetic study in rats after oral administration of OS extract (UHPLC-QqQ-MS/MS of plasma). The format is in vivo, rat. To be noted: for concentration at 0.5 h / AUC(0-t) / AUC(0-inf) / Cmax / half-life / Tmax: male; for concentration at 0.5 h: SD; for AUC(0-t) / AUC(0-inf) / Cmax / half-life / Tmax: rat plasma, oral 3 g/kg OS extract, n = 6, mean ± SD; for AUC(0-t): read-out: AUC(0-t); for AUC(0-inf): read-out: AUC(0-∞); for Cmax: read-out: Cmax; for half-life: read-out: T1/2 (converted); for Tmax: read-out: Tmax. On the procedure: The UHPLC-QqQ-MS/MS system consisted of a 1290 UHPLC and a 6470 mass spectrometer (Agilent Technologies). Chromatographic separation was realized on utilizing an ACQUITY UPLC BEH C18 column (2.1 × 100 mm, 1.7 μm) maintained at 35 °C. The mobile phase consisting of 0.1% formic acid in water (A) and acetonitrile (B) was utilized with the elution program set at 0 min–1 min, 5% B–30% B; 1 min–4 min, 30% B– 50% B; 4 min–8 min, and 50% B–90% B. The injection volume was 5 μL, and the flow rate was 0.3 mL/min. The mass spectrometry parameters in the negative ion mode, gas temperature, flow rate, and nebulizer pressure were 300 °C, 7 L/min, and 35 psi, respectively. The mass spectra properties of the 15 analytes and the IS are illustrated in Table 1.
To 100 μL of the plasma sample, 20 μL of methanol, 20 μL of IS solution (methylparaben, 1 μg/mL), and 5 μL of formic acid were added and vortexed for a duration of 2 min. Subsequently, the mixture underwent extraction with 800 μL of acetonitrile for 3 min. Following 10 min of centrifugation at 12,000 g, the supernatant was collected and evaporated to dryness under N2 to obtain the residue. Finally, the residue was reconstituted in 50% methanol (100 μL) and utilized for analysis.
Before initiating the study, six male SD rats underwent a 12-h fasting period, during which they were granted unrestricted access to water. Then, the rats were administered an oral dose of 3 g/kg of the OS extract, which had been dissolved in 0.5% CMC-Na aqueous solution. Blood samples, approximately 200 μL each, were collected at various time points: before administration and at 0.03, 0.08, 0.17, 0.25, 0.5, 0.75, 1, 2, 4, 6, 8, 10, 12, 24, 36, and 48 h post-administration. Following 10 min of centrifugation at 6,000 g, the resultant samples were stored at −80 °C.
The developed method was effectively applied to study the pharmacokinetics in rats following oral administration of the OS extract. […] This was likely due to their low concentrations in the OS extract. Ultimately, nine components (chrysin, chrysin-7-O-β-D-glucuronide, baicalin, baicalein, oroxin A, oroxin B, oroxylin A, oroxylin A-7-O-β-D-glucuronide, and scutellarein) were successfully fitted with pharmacokinetic parameters. The average plasma concentration–time profiles of these substances are depicted in Figure 3. […] All data were presented as the mean ± standard deviation (Mean ± SD).

Setting [3] is: 3 g/kg, rat plasma collected 0.5 h after oral administration of the OS extract, read-out: Concentration printed in MRM chromatogram of plasma sample (Figure 2C).
[4] abbreviates: rat plasma after oral OS extract.
The mark [5] stands for this setting: spiked concentration 6400 ng/mL.

As for `O=c1cc(-c2ccc(O)cc2)oc2cc(O)cc(O)c12` [Apigenin, apigenin], in data set [1] (spiked concentration 2 ng/mL), the “Measured, -80°C for 7 days” value came out at 1.93 ± 0.09 ng/mL; the “Measured, Autosampler for 12 h” value worked out at 2.00 ± 0.16 ng/mL; the “Measured, Room temperature for 4 h” value is recorded as 2.23 ± 0.11 ng/mL; the “Measured, Three freeze-thaw cycles” value amounted to 2.07 ± 0.13 ng/mL. For the same compound, in data set [1] (spiked concentration 20 ng/mL), the “Measured, -80°C for 7 days” value amounted to 20.16 ± 2.35 ng/mL; the “Measured, Autosampler for 12 h” value amounted to 20.39 ± 1.55 ng/mL; the “Measured, Room temperature for 4 h” value is given as 18.37 ± 0.87 ng/mL; the “Measured, Three freeze-thaw cycles” value is recorded as 18.24 ± 1.16 ng/mL. For the same compound, in data set [1] (spiked concentration 320 ng/mL), the “Measured, -80°C for 7 days” value turned out to be 288.58 ± 21.30 ng/mL; the “Measured, Autosampler for 12 h” value is given as 316.15 ± 18.09 ng/mL; the “Measured, Room temperature for 4 h” value came to 310.13 ± 19.51 ng/mL; the “Measured, Three freeze-thaw cycles” value came to 306.45 ± 18.15 ng/mL. Also, in data set [2] (rat, in vivo, po), the concentration at 0.5 h was determined as 45 ng/mL and the Plasma levels result is “too weak to obtain comprehensive pharmacokinetic curves”.
`O=c1c(O)c(-c2ccc(O)c(O)c2)oc2cc(O[C@@H]3O[C@H](CO)[C@@H](O)[C@H](O)[C@H]3O)cc(O)c12` [Quercetin-7-O-β-D-glucoside, quercetin-7-O-β-D-glucoside]: in data set [1] (spiked concentration 2 ng/mL), the “Measured, -80°C for 7 days” value was 1.96 ± 0.23 ng/mL; the “Measured, Autosampler for 12 h” value is 2.10 ± 0.15 ng/mL; the “Measured, Room temperature for 4 h” value was determined as 1.98 ± 0.24 ng/mL; the “Measured, Three freeze-thaw cycles” value turned out to be 2.03 ± 0.10 ng/mL. Moreover, in data set [1] (spiked concentration 20 ng/mL), the “Measured, -80°C for 7 days” value was 19.58 ± 0.68 ng/mL; the “Measured, Autosampler for 12 h” value is 19.79 ± 2.27 ng/mL; the “Measured, Room temperature for 4 h” value was 20.28 ± 1.69 ng/mL; the “Measured, Three freeze-thaw cycles” value came to 17.78 ± 1.17 ng/mL. In data set [1] (spiked concentration 320 ng/mL), the “Measured, -80°C for 7 days” value stood at 296.81 ± 20.76 ng/mL; the “Measured, Autosampler for 12 h” value is on record as 320.27 ± 20.06 ng/mL; the “Measured, Room temperature for 4 h” value came out at 315.81 ± 25.77 ng/mL; the “Measured, Three freeze-thaw cycles” value came out at 326.98 ± 27.26 ng/mL. For the same compound, the concentration at 0.5 h in data set [2] (setting [3]) was 8 ng/mL. Also, the Plasma levels result in data set [2] (setting [4]) is “too weak to obtain comprehensive pharmacokinetic curves”.
In the case of `COc1c(O)cc2oc(-c3ccc(O)cc3)cc(=O)c2c1O` [Hispidulin, hispidulin], in data set [1] (spiked concentration 2 ng/mL), the “Measured, -80°C for 7 days” value is 1.85 ± 0.14 ng/mL; the “Measured, Autosampler for 12 h” value turned out to be 1.79 ± 0.08 ng/mL; the “Measured, Room temperature for 4 h” value stood at 1.87 ± 0.12 ng/mL; the “Measured, Three freeze-thaw cycles” value was determined as 1.77 ± 0.14 ng/mL. In addition, in data set [1] (spiked concentration 20 ng/mL), the “Measured, -80°C for 7 days” value stood at 19.90 ± 2.31 ng/mL; the “Measured, Autosampler for 12 h” value was 21.61 ± 2.09 ng/mL; the “Measured, Room temperature for 4 h” value turned out to be 21.29 ± 2.88 ng/mL; the “Measured, Three freeze-thaw cycles” value stood at 20.10 ± 2.62 ng/mL. In addition, in data set [1] (spiked concentration 320 ng/mL), the “Measured, -80°C for 7 days” value was 280.72 ± 21.00 ng/mL; the “Measured, Autosampler for 12 h” value was 304.61 ± 18.62 ng/mL; the “Measured, Room temperature for 4 h” value came out at 315.17 ± 13.17 ng/mL; the “Measured, Three freeze-thaw cycles” value is 289.06 ± 17.23 ng/mL. The concentration at 0.5 h in data set [2] (in vivo, 3 g/kg, rat plasma collected 0.5 h after oral administration of the OS extract, read-out: Concentration printed in MRM chromatogram of plasma sample (Figure 2C)) was 36 ng/mL. Moreover, the Plasma levels entry in data set [2] (setting [4]) was “too weak to obtain comprehensive pharmacokinetic curves”.
Consider `O=C(O)[C@H]1O[C@@H](Oc2cc(O)c3c(=O)cc(-c4ccccc4)oc3c2)[C@H](O)[C@@H](O)[C@@H]1O` [Chrysin-7-O-β-D-glucuronide, chrysin-7-O-β-D-glucuronide], for which, in data set [1] (spiked concentration 40 ng/mL), the “Measured, -80°C for 7 days” value stood at 37.32 ± 1.14 ng/mL; the “Measured, Autosampler for 12 h” value worked out at 39.57 ± 2.48 ng/mL; the “Measured, Room temperature for 4 h” value was 39.19 ± 3.16 ng/mL; the “Measured, Three freeze-thaw cycles” value is reported as 43.49 ± 1.13 ng/mL. Moreover, in data set [1] (spiked concentration 400 ng/mL), the “Measured, -80°C for 7 days” value is reported as 409.88 ± 38.24 ng/mL; the “Measured, Autosampler for 12 h” value came out at 419.16 ± 29.59 ng/mL; the “Measured, Room temperature for 4 h” value is listed as 419.25 ± 24.55 ng/mL; the “Measured, Three freeze-thaw cycles” value came to 402.45 ± 17.08 ng/mL. Further, in data set [1] (setting [5]), the “Measured, -80°C for 7 days” value is listed as 6210.06 ± 535.52 ng/mL; the “Measured, Autosampler for 12 h” value is given as 5954.05 ± 243.71 ng/mL; the “Measured, Room temperature for 4 h” value is listed as 6145.55 ± 285.25 ng/mL; the “Measured, Three freeze-thaw cycles” value was found to be 6316.77 ± 188.36 ng/mL. Also, the concentration at 0.5 h in data set [2] (setting [3]) came to 879 ng/mL. In data set [2], the AUC(0-t) turned out to be 43500 ng·h/mL, the AUC(0-inf) came out at 44900 ng·h/mL, the Cmax came to 3320 ng/mL and the half-life was 4.79 ± 2.28 h. In addition, in data set [2], the Tmax came to 10 ± 2 h.
Regarding `O=c1cc(-c2ccccc2)oc2cc(O)c(O)c(O)c12` [Baicalein, baicalein], in data set [1] (spiked concentration 40 ng/mL), the “Measured, -80°C for 7 days” value is 38.12 ± 3.24 ng/mL; the “Measured, Autosampler for 12 h” value is listed as 39.31 ± 4.16 ng/mL; the “Measured, Room temperature for 4 h” value stood at 40.41 ± 3.19 ng/mL; the “Measured, Three freeze-thaw cycles” value is listed as 38.12 ± 3.24 ng/mL. In addition, in data set [1] (spiked concentration 400 ng/mL), the “Measured, -80°C for 7 days” value came out at 409.67 ± 26.03 ng/mL; the “Measured, Autosampler for 12 h” value is listed as 393.06 ± 21.11 ng/mL; the “Measured, Room temperature for 4 h” value was determined as 389.14 ± 35.85 ng/mL; the “Measured, Three freeze-thaw cycles” value is given as 409.67 ± 26.03 ng/mL. Also, in data set [1] (setting [5]), the “Measured, -80°C for 7 days” value turned out to be 5967.02 ± 503.93 ng/mL; the “Measured, Autosampler for 12 h” value was determined as 6241.15 ± 404.47 ng/mL; the “Measured, Room temperature for 4 h” value worked out at 6247.34 ± 389.56 ng/mL; the “Measured, Three freeze-thaw cycles” value is listed as 5967.02 ± 503.93 ng/mL. Further, in data set [2] (setting [3]), the concentration at 0.5 h was determined as 400 ng/mL. In data set [2], the AUC(0-t) worked out at 4200 ng·h/mL, the AUC(0-inf) worked out at 4600 ng·h/mL, the Cmax is 2930 ng/mL and the half-life was 2.99 ± 1.18 h. The Tmax in data set [2] turned out to be 0.06 ± 0.03 h.

Values taken from PMC12589998, “Development and validation of a UHPLC-QqQ-MS/MS method for simultaneous determination of fifteen major components from Oroxyli seed extract in rat plasma and its application in the pharmacokinetic study” (Frontiers in Pharmacology, 2025).
